Values quoted from earlier work, collected in US20130137635A1, “TRYPTOPHAN HYDROXYLASE INHIBITORS FOR THE TREATMENT OF METASTATIC BONE DISEASE” (LEXICON PHARMACEUTICALS, INC., priority 2010, published 2013).

Columns and labels:
[1] = system: carcinoid syndrome; conditions: patients; reported in the 1960's
[2] = system: cholangiocarcinoma tumors; conditions: in vivo xenograft model of cholangiocarcinoma tumors; pCPA treatment

N[C@@H](Cc1ccc(Cl)cc1)C(=O)O (racemic) [pCPA, para-chlorophenylalanine]
effect on symptoms of carcinoid syndrome [1]: alleviated some of the symptoms of carcinoid syndrome
side effects on administration [1]: unacceptable side effects
tumor growth [2]: suppressed tumor growth
